What was measured:
[1] = system: human prostate cancer cells (PC3); experiment: MTT cytotoxic activity assay, PC3 cells, 72 h; format: cell-based
Description: (§1) Cancer treatment often damages healthy cells and tissues. Every treatment has important and diverse side effects; these depend mainly on the type and extent of treatment, are not the same for everyone, and may even vary from one treatment to another in the same person. While most cancer patients receiving chemotherapy lose hair during the treatment process, other side effects vary depending on the type of drug. Therefore, the discovery of new drugs with side effects lower than those of the chemotherapeutic agents used in treatment has become an important focus of cancer research. In the present study, the cytotoxic activities of new compounds (1–18) and cisplatin were tested in prostate and colon cancer cell lines and healthy embryonic kidney cell line for 72 h.
(§2) The PC3 and DLD-1 cell lines were purchased from the American Type Culture Collection. The PC3, DLD-1, and HEK-293T cells were seeded in 96-well plates at a density of 5 × 10^3 cells/well for cytotoxic activity studies.[36]−[38] Cells were exposed to compounds at concentrations of 300, 150, 75, and 37.5 μM after 24 h. The 50 μL (5 mg/mL) amount of MTT stock solution was added to wells after 72 h and incubated for a further 2 h. The absorbance values were measured by using an Epoch 2 ELISA plate reader at 590 nm.

[2] = system: human colon cancer cells (DLD-1); experiment: MTT cytotoxic activity assay, DLD-1 cells, 72 h; format: cell-based; settings: DLD-1 cell line
Description: as §1, §2

[3] = system: human embryonic kidney cells (HEK-293T); experiment: MTT cytotoxic activity assay, HEK-293T healthy cells, 72 h; format: cell-based; settings: HEK-293T healthy cell line
Description: as §1
To determine whether all of the prepared substances had selectivity for healthy cells, the compounds were tested against HEK-293T cells at the same concentrations as those applied to cancer cells. […] Changes in the cell viability ratio depending on concentrations of the tested compounds (1–18) and cisplatin are given below (Figure 3).
as §2

[4] = Homo sapiens, PC-3, PC3 cell line

melting point | SMILES | IC50 ([1]; PC3 cell line) | IC50 [2] | IC50 [1, 4] | IC50 ([2]; Homo sapiens) | IC50 [3]
 | N.N.[Cl][Pt][Cl] [cisplatin, reference compound] | 8.8 ± 0.51 µM | 26.7 ± 2.78 µM |  |  | 
 | O=C(NN=Cc1c(OS(=O)(=O)c2ccc(C(F)(F)F)cc2)ccc2ccccc12)c1ccncc1 [Compound 18] |  |  | 17.05 ± 0.09 µM | 37.4 ± 4.63 µM | 15.75 ± 0.11 µM
110 to 111 °C | O=Cc1ccc(OS(=O)(=O)c2ccc(C(F)(F)F)cc2)cc1 [Compound 3] |  |  | 76.6 ± 3.55 µM | 115 ± 5.78 µM | 89.26 ± 0.17 µM
 | COc1ccc(C=O)c(OS(=O)(=O)c2ccc(C(F)(F)F)cc2)c1 [Compound 5] |  |  | 11.2 ± 0.94 µM | 19.3 ± 2.71 µM | 38.6 ± 2.81 µM
 | COc1ccc(C=O)cc1OS(=O)(=O)c1ccc(C(F)(F)F)cc1 [Compound 6] |  |  | 16 ± 1.71 µM | 17.8 ± 0.53 µM | 91 ± 2.26 µM
 | COc1cccc(C=O)c1OS(=O)(=O)c1ccc(C(F)(F)F)cc1 [Compound 4] |  |  | 10.3 ± 0.8 µM | 13.5 ± 1.64 µM | 35.3 ± 1.15 µM
 | COc1ccc(C=NNC(=O)c2ccncc2)cc1OS(=O)(=O)c1ccc(C(F)(F)F)cc1 [Compound 15] |  |  | 97.4 ± 4.85 µM | 63.8 ± 5.32 µM | 166 ± 6.71 µM
180 to 181 °C | COc1ccc(C=NNC(=O)c2ccncc2)c(OS(=O)(=O)c2ccc(C(F)(F)F)cc2)c1 [Compound 14] |  |  | 16.5 ± 1.54 µM | 28.4 ± 2.81 µM | 26.6 ± 2.62 µM
 | O=C(NN=Cc1ccccc1OS(=O)(=O)c1ccc(C(F)(F)F)cc1)c1ccncc1 [Compound 10] |  |  | 139 ± 5.82 µM | 17.9 ± 0.51 µM | 52.2 ± 3.52 µM
112 to 113 °C | COc1cc(C=O)ccc1OS(=O)(=O)c1ccc(C(F)(F)F)cc1 [Compound 7] |  |  | 71.6 ± 3.46 µM | 74 ± 4.34 µM | 110 ± 5.97 µM
189 to 190 °C | O=C(NN=Cc1cccc(OS(=O)(=O)c2ccc(C(F)(F)F)cc2)c1)c1ccncc1 [Compound 11] |  |  | 80.1 ± 4.59 µM | 144 ± 4.18 µM | 245 ± 5.79 µM
192 to 193 °C | COc1cc(C=NNC(=O)c2ccncc2)ccc1OS(=O)(=O)c1ccc(C(F)(F)F)cc1 [Compound 16] |  |  | 121 ± 5.71 µM | 72.8 ± 3.13 µM | 183 ± 2.72 µM
198 to 199 °C | COc1cccc(C=NNC(=O)c2ccncc2)c1OS(=O)(=O)c1ccc(C(F)(F)F)cc1 [Compound 13] |  |  | 214 ± 6.48 µM | 78.8 ± 3.15 µM | > 300 µM
83 to 84 °C | O=Cc1ccccc1OS(=O)(=O)c1ccc(C(F)(F)F)cc1 [Compound 1] |  |  | 14.3 ± 1.87 µM | 22.5 ± 2.6 µM | 19.5 ± 1.57 µM
114 to 116 °C | CCN(CC)c1ccc(C=O)c(OS(=O)(=O)c2ccc(C(F)(F)F)cc2)c1 [Compound 8] |  |  | 28.8 ± 1.85 µM | 24.7 ± 1.9 µM | 40.8 ± 5.68 µM
141 to 142 °C | CCN(CC)c1ccc(C=NNC(=O)c2ccncc2)c(OS(=O)(=O)c2ccc(C(F)(F)F)cc2)c1 [Compound 17] |  |  | 57.6 ± 1.83 µM | 110 ± 5.09 µM | 132 ± 5.46 µM
208 to 209 °C | O=C(N/N=C/c1ccc(OS(=O)(=O)c2ccc(C(F)(F)F)cc2)cc1)c1ccncc1 [Compound 12] |  |  | > 300 µM | > 300 µM | > 300 µM
79 to 80 °C | O=Cc1cccc(OS(=O)(=O)c2ccc(C(F)(F)F)cc2)c1 [Compound 2] |  |  | 24.5 ± 2.09 µM | 41.2 ± 3.94 µM | 60 ± 4.81 µM
129 to 131 °C | O=Cc1c(OS(=O)(=O)c2ccc(C(F)(F)F)cc2)ccc2ccccc12 [Compound 9] |  |  | 14.8 ± 1.03 µM | 17.6 ± 0.62 µM | 34.7 ± 2.21 µM

— article PMC11025081, “Design, Synthesis, and In Silico and In Vitro Cytotoxic Activities of Novel Isoniazid–Hydrazone Analogues Linked to Fluorinated Sulfonate Esters” (ACS Omega, 2024)
